From patent publication EP0598753B1, “MANGANESE COMPLEXES OF NITROGEN-CONTAINING MACROCYCLIC LIGANDS EFFECTIVE AS CATALYSTS FOR DISMUTATING SUPEROXIDE” (MONSANTO COMPANY, priority 1991, dated 1993)

Columns and labels:
[1] = system: conscious rats; assay: Rat hemodynamic model (mean blood pressure, conscious rats); format: in vivo, male Sprague-Dawley rats
Description: Catheters were inserted into the femoral vein, femoral artery and bladder of male Sprague-Dawley rats (250-325 grams total body weight) anesthetized with ether. The rats were then placed in individual restraining cages and allowed to regain consciousness. Blood pressure was measured by a standard pressure transducer and physiograph. Increasing doses of the manganese(II) complex of Example 1 (prepared in an aqueous solution) were given as single bolus injections. The results of the tests can be found in Figure 1. The blood pressure values represent the mean arterial blood pressure from the mean values of 3 rats. […] Thus, the potentiation by the complex of Example 1 of the vasorelaxant effects of NO is consistent with the proposed mechanism of action as an SOD mimic.

[2] = system: human aortic endothelial cells (HAE cells); assay: Neutrophil-mediated cytotoxicity assay (51Cr-release); conditions: 50% inhibition of specific cytotoxicity; human neutrophil-mediated killing of human aortic endothelial cells
Description: (§1) Human peripheral blood neutrophils were isolated from fresh venous blood of healthy volunteers. EDTA anticoagulated blood was separated using a single step density centrifugation (Polymorphprep; Nycomed Pharma, Oslo, Norway) followed by several washes in Hank's balanced salt solution supplemented with 0.5% BSA (Bovine Serum Albumin) (HBSSB) and the hypertonic lysis of erythrocytes. Neutrophils were counted via Coulter electronic particle counter and resuspended in HBSSB supplemented with 25% Endothelial Basal Medium (EBM), (Clonetics Corporation, San Diego, CA) at a concentration of 5 x 10^6 polymorphonuclear leukocytes (PMN)/ml.
(§2) The cytotoxic effects of stimulated neutrophils on endothelial cells were determined using a ^51Cr-release assay as previously described (Moldow, C.F., and Jacob, H.S. (1984) Methods Enzymol. 105, 378-385). Confluent monolayers of human aortic endothelial cells (HAE cells; Clonetics) grown in 96-well culture plates were prelabeled with 1 µCi/well ^51Cr (Na2 ^51Cr2O4, New England Nuclear, Boston, MA). The cells were incubated for 18 h at 37°C, then cytokine-activated with 10 Units/well human recombinant tumor necrosis factor-a (hrTNF-α; Monsanto Company, St. Louis, MO) for 4 h at 37°C. The cells were washed twice to remove unincorporated radioactivity with Hank's balanced salt solution supplemented with 0.5% BSA. To assess inhibition of PMN-mediated cytotoxicity, manganese(II) complexes at various doses (0-300 µM) were added to five replicate wells/dose of HAE cells immediately prior to the addition of PMN. Suspensions of PMN in HBSSB supplemented with 25% Endothelial Basal Medium were added to the wells at a neutrophil to endothelial cell ratio of 50:1. The PMN were allowed to adhere for 15 minutes at 37°C, primed with 125 Units/well hrTNF-α (Berkow, R.L., Wang, D., Larrick, J.W., Dodson, R.W., and Howard, T.H. (1987) J. Immunol. 139, 3783-3791; Varani, J.; Bendelow, M. J. Sealey, D. E.; Kunkel, S. L.; Gannon, D. E.; Ryan, U.S.; and Ward, P.A. (1987) Lab. Invest., 59, 292-295) for 10 minutes, and stimulated with human recombinant complement component C5a (Sigma Chemical, St. Louis, MO). […] After an additional incubation of 4 hours at 37°C, 200 µl of the 250 µl reaction volume (soluble fraction) was removed to a tube for counting. The cells were washed twice with 200 µl HBSSB (nonadherent fraction) and the washes pooled with the soluble fraction. The adherent fraction was collected by lysing the HAE cells with 200 µl 1N NaOH for 30 minutes and removing to separate tubes. Both fractions were analyzed by gamma scintillation spectrometry. The percentage cytotoxicity was calculated by the following formula: % Cytotoxicity =(cpm (soluble + nonadherent fractions))/(cpm (soluble + nonadherent + adherent fractions))x 100 [formula] Specific cytotoxicity reflects the difference between ^51Cr-release induced by stimulated PMN and unstimulated PMN. The IC50 values for the manganese(II) complexes for protection against neutrophil-mediated cytotoxicity were determined from a computer-driven logistic regression equation from a plot of % specific cytotoxicity versus the concentration of the manganese(II) complex.

[3] = system: rat aortic rings; assay: Rat aortic ring assay
Description: The aortic rings were prepared using a Furchgott procedure (described in Furchgott, R.F., "Role of Endothelium in Response of Vascular Smooth Muscle", Circ. Res. 53: 557-573, 1983) with changes in tension recorded. In all preparations, initial tension (1.5 grams) was produced with 30 mM KCl.

[4] = system: rat lung fibroblast cells; assay: Nitric oxide: rat lung fibroblast cGMP reporter assay; format: cell-based; conditions: for cGMP: mean
Description: The assay is described in Ishii, I., Sheng, H., Warner, T.D., Förstermann, V. and Murad, F., Am. J. Physiol., 261 (Heart Circ. Physiol. 30); H598-H603, 1991 modified in that the nitric oxide synthase (NOS) is added directly to the cells. Rat lung fibroblast cells were grown to confluence on a 48-well tissue culture plate containing Earle's salts medium. The medium is removed and the cells washed twice with minimal essential medium buffered with Earle's salts. A nitric oxide (NO) generating system consisting of enzyme (NOS), nicotinamide adenine dinucleotide phosphate (NADPH), arginine and required cofactors, such as tetrahydrobiopterin and flavin adenine dinucleotide (FAD) is subsequently added to each well. In cases where the complex of Example 1 was added, addition occurred with the NO generating system. After five minutes of incubation, each reaction is terminated, cellular cGMP extracted and measured by radioimmunoassay.
The capacity of the rat lung fibroblast cells to respond to NO was confirmed by adding sodium nitroprusside (SNP), a compound which spontaneously degrades to NO and results in increased cGMP levels. Next, crude NOS (prepared from endotoxin-treated RAW 264.7 cells) was added to the rat lung fibroblast cells to determine their response to enzymatically generated NO. A dose-dependent increase in cGMP with increasing amounts of enzyme was obtained. Superoxide dismutase (SOD) addition augmented cellular cGMP levels.

[5] = system: colonic myeloperoxidase activity; assay: Mouse acetic acid-induced colitis model (colonic myeloperoxidase); format: in vivo; conditions: 30 mg/kg dose, intracolonic, 30 minutes before acetic acid, tissue after 24 hours
Description: Mouse colitis model. […] Mice were lightly anesthetized. A solution of 3% (v/v) aqueous acetic acid was instilled intracolonically via a flexible polyethylene tube. After 24 hours, the animals were killed and colonic tissue samples were obtained. Tissue samples were assessed biochemically for the neutrophil marker enzyme, myeloperoxidase (MPO). The colonic tissue samples were minced, homogenized in detergent, and sonicated. After centrifugation, enzyme activities were assayed spectrophotometrically by determining the decomposition of peroxide using o-dianisidine as the hydrogen donor. Data was obtained as the absorbance (460 nm) at 20 minutes. Test agents were given intracolonically at a dose of 30 mg/kg body weight 30 minutes before acetic acid instillation as a sonicated suspension in 0.5% aqueous methyl cellulose. Vehicle was given to appropriate acetic acid control animals. Normal tissue was obtained from control animals which received only vehicle. Colonic myeloperoxidase activities were determined as units/g wet weight of tissue. Reduction of colonic myeloperoxidase activity by test agents in acetic acid-treated mice is expressed as % inhibition (Table 2). Colonic myeloperoxidase activity correlated with the degree of tissue inflammation as assessed by visual and histological analysis.

[6] = system: human aortic endothelial cells (HAE cells)
Description: as §1, §2

[7] = target: T1, nitric oxide synthase (NOS) (Mus musculus, UniProt P29477); assay: NOS activity measured by citrulline production; format: biochemical
T1 construct: crude NOS (prepared from endotoxin-treated RAW 264.7 cells); endogenous in cells; host or cells: endotoxin-treated RAW 264.7 cells (crude enzyme preparation)
T1 sequence (P29477 1-1144): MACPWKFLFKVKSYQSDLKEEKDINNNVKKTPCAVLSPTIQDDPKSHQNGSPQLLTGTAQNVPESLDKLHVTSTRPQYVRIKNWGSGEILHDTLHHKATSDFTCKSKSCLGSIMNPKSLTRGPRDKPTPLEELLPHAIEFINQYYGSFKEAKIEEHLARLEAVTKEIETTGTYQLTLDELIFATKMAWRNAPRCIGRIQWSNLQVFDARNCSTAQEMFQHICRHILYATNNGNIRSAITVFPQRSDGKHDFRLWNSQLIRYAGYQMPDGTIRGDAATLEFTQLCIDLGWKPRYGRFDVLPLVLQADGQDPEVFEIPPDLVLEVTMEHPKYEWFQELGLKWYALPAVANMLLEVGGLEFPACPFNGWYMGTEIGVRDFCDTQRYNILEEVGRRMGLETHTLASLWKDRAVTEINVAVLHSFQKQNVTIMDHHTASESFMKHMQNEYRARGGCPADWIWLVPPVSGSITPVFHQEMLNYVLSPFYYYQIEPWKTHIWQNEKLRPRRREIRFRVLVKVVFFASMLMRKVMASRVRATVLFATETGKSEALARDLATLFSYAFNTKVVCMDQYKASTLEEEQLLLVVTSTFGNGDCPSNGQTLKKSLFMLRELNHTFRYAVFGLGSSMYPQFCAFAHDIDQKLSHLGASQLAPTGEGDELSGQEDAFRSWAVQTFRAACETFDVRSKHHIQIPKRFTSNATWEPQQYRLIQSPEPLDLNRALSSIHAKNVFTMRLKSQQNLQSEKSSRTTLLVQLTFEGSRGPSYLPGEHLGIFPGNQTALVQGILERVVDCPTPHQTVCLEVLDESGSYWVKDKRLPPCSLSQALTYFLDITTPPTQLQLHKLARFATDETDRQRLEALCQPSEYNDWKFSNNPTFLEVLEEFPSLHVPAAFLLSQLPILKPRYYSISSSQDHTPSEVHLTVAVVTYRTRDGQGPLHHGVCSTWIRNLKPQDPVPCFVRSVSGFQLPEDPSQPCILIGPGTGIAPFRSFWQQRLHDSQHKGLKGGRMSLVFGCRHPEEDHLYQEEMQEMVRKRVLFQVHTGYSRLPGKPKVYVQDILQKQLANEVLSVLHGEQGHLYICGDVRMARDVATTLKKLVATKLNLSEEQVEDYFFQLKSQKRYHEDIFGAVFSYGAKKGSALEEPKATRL

- augmentation of cellular cGMP levels ([3]; rat aortic rings, 5 micromolar for 1 min.): 2.5 fold
- NOS activity as measured by citrulline production [7]: does not increase NOS activity
SMILES: C1CNCCNCCNCCNCCN1.[Cl-].[Cl-].[Mn+2] [Example 1, [Manganese(II)dichloro(1,4,7,10,13-Pentaazacyclopentadecane)]]
- effect on mean blood pressure, in words ([1]; increasing doses as single bolus injections, aqueous solution, data in Figure 1): blood pressure drop
- duration of the blood pressure drop ([1]; single bolus injections): 3 to 5 min
- IC50 [2]: 25 µM
- effect on the relaxation response to acetylcholine, in words ([3]; complex 0.5 and 5.0 micromolar, acetylcholine 0.1 and 1.0 micromolar): additive effect
- effect on the relaxation response to sodium nitroprusside, in words ([3]; complex 0.5 and 5.0 micromolar, sodium nitroprusside 0.001 to 10 micromolar): additive effect
- maximum relaxation ([3]; endothelium and dose-dependent from 0.05 to 300 micromolar, 30 mM KCl): 45%
- cGMP ([4]; NOS + complex 0.0001mM): 19.3 fmol/well/10
- cGMP ([4]; NOS + complex 0.001mM): 21.7 fmol/well/10
- cGMP ([4]; NOS + complex 0.01mM): 43.7 fmol/well/10
- cGMP ([4]; NOS + complex 0.10mM): 54.7 fmol/well/10
- cGMP ([4]; NOS + complex 1.0mM): 60.3 fmol/well/10
- cGMP ([4]; complex alone, 1mM, no NOS): 11.7 fmol/well/10
- basal levels of cGMP, in words ([4]; complex alone, 1 millimolar): not increased
- cGMP levels, in words ([4]; with NO generating system, 1 micromolar to 1 millimolar): dose-dependent increase in cGMP levels
- % Inhibition of Colonic Myeloperoxidase Activity [5]: 69%
- protection against human neutrophil-mediated cytotoxicity, in words [6]: protective against human neutrophil-mediated cytotoxicity
